Assay [1] addresses T1, UT-B (Homo sapiens, UniProt Q13336).
T1 construct: a red blood cell (i.e., erythrocyte), which endogenously expresses the urea transporter UT-B; endogenous in cells; host or cells: human red blood cells (whole venous blood, single donor)
T1 sequence (Q13336 1-389): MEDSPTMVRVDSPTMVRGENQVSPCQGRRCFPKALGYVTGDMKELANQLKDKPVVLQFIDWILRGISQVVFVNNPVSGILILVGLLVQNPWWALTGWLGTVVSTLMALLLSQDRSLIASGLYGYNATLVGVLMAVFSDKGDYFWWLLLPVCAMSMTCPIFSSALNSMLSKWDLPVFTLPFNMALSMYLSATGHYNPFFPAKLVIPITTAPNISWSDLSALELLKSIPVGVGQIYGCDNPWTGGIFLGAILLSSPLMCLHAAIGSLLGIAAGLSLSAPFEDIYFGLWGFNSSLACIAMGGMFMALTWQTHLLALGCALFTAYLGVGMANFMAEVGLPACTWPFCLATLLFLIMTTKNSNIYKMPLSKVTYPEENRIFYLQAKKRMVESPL
Nature of the assay: RBC lysis assay, human RBCs. It counts as cell-based. The source says:
Vigorous mixing was achieved by repeated pipetting.

Assay [2] has as its target T2, rat UT-A1 (Rattus norvegicus, UniProt Q62668).
T2 construct: expressed in transfected cells; host or cells: MDCK cells (gift of Dr. Jeffrey Sands, Emory University)
T2 sequence (Q62668 1-929): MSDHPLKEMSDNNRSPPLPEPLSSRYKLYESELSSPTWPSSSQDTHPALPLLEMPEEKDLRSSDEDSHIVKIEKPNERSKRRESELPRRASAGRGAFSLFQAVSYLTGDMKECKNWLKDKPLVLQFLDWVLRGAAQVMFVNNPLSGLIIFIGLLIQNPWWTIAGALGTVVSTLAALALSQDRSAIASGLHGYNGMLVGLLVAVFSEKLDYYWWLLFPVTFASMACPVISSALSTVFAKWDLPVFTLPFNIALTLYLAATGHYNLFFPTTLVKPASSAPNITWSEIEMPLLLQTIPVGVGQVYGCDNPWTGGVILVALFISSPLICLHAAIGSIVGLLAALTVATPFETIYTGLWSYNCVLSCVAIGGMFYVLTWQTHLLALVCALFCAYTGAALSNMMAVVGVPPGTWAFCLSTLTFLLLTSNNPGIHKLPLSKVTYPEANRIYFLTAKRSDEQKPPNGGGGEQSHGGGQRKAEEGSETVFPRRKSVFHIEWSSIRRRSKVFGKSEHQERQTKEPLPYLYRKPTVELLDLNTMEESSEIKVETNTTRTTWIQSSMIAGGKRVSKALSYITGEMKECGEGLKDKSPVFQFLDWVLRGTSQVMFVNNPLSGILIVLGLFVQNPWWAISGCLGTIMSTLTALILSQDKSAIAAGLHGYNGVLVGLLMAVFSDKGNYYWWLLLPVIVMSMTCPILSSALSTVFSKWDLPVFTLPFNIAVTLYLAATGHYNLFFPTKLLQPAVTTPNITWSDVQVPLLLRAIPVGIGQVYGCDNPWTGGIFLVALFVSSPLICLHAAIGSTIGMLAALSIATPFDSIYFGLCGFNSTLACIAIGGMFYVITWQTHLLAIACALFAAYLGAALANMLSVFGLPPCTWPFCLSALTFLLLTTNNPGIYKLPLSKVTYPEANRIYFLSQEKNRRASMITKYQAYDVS
Nature of the assay: UT-A1-facilitated urea flux across MDCK-UT-A1 cell layers. The note with it: for inhibition of rat UT-A1: 25 μM. Format: cell-based. The protocol:
Concentration-inhibition studies were performed to study the effect of the active mouse UT-B inhibitors on urea transport by UT-A. The amino acid sequences of UT-B and UT-A urea transporter isoforms share significant similarity. The cells used in these studies were MDCK cells that expressed rat UT-A1. MDCK-UT-A1-expressing cells were grown on collagen-coated porous filters until they were electrically tight, at which point 15 mM urea was introduced into buffer bathing the basolateral cell surface.
MDCK cells stably transfected with rat UT-A1 (MDCK-UT-A1) (Fröhlich et al., Am J Physiol. in press; Fröhlich et al., Am. J. Physiol. Cell Physiol. 286:C1264-70 (2004). Epub on Jan. 28, 2004) were generously provided by Dr. Jeffrey Sands (Emory University School of Medicine, Atlanta, Ga.). Cells were grown in Dulbecco's Modified Eagle Medium (DMEM) with bicarbonate and supplemented with 10% fetal bovine serum (FBS), 25 mM HEPES buffer, penicillin G (100 U/mL), streptomycin (100 μg/mL) and hygromycin (500 μg/mL). For determining urea flux, cells were grown on 12-mm collagen-coated TRANSWELL inserts (0.4 μm pore size; Costar) as described (Fröhlich et al., Am J Physiol. in press; Fröhlich et al., 2004, supra). The TRANSWELL inserts were incubated in hygromycin-free medium for 1 hr in a 5% CO2 tissue culture incubator (37° C.), and then 2×10^5 cells/cm^2 were loaded onto each insert. Cells were used after culturing the cells for 4 days in hygromycin-free medium, at which time they formed tight monolayers (transepithelial resistance 500-600 Ω·cm^2).
UT-A1-facilitated urea flux in the basolateral-to-apical direction across unstimulated and forskolin-stimulated MDCK-UT-A1 cell layers was measured in response to a 15-mM urea gradient. Experiments were carried out in 12-well plates in which PBS, containing either DMSO vehicle or forskolin, with or without UT-B inhibitor, added to both the apical-facing (0.2 mL) and basal-facing (1 mL) surfaces of cells on the porous filters. Cultures were incubated in the absence of urea for 30 min at 37° C. Then, the basal-facing solution was replaced with PBS (containing same components) with 15 mM urea. Five μL samples of apical fluid were collected at specified times during incubation at 37° C., and urea concentration was determined using a commercial kit based on chromogenic urea complexation at 520-nm wavelength (Quantichrom™ Urea Assay Kit, BioAssay Systems, Hayward, Calif.). Forskolin (10 μM), with or without UT-B transport inhibitors, was added from 1000× DMSO stock solutions (0.2% final DMSO content). Inhibition of UT-A1-mediated transport was defined as % inhibition=100% (Aforsk−Atest)/(Aforsk−Aphlor). Aforsk, and Aphlor were averaged absorbance values (at 520 nm) for cultures treated with forskolin and forskolin+phloretin, respectively, and Atest were values from cultures treated with forskolin+test compound.

Assay [3] has as its system RBCs from wild-type mice. Nature of the assay: Osmotic water permeability, RBCs from wild-type mice. It counts as cell-based, mouse. The protocol: FIGS. 8A-B illustrate UT-B-facilitated water transport by ‘chemical UT-B knock-out’. Osmotic water permeability was measured from the time course of RBC volume in response to a 250-mM inwardly directed sucrose gradient. FIG. 8A presents representative traces of mouse RBC water permeability performed at 10° C., with genotypes and conditions indicated. Inhibitors ureainh-201 and ureainh-302 were used at 25 μM. FIG. 8B presents osmotic water permeability coefficients (Pf) from experiments as illustrated in FIG. 8A (±SE, 3-7 curves per group of RBCs pooled from 4 mice per genotype). *, P<0.01 compared with no inhibitor; #, P<0.01 compared with wild-type (no inhibitor).
RBC urea and water permeabilities were assayed by stopped-flow light scattering using a Hi-Tech Sf-51 instrument (Wiltshire, UK). For measurement of urea permeability, dilutions of whole blood (human or mouse; see Example 1) in PBS (hematocrit: approximately 0.5%) were incubated with test compounds for 5 min and then subjected to a 250-mM inwardly directed gradient of urea. After an initial osmotic shrinking phase, the kinetics of increasing cell volume caused by urea influx were measured as the time-course of 90° scattered light intensity at 530 nm, with increasing cell volume resulting in reduced scattered light intensity. As a positive control, 0.7 mM phloretin was added to the RBC suspension prior to stopped-flow experiments. Measurements of water permeability were carried out similarly, with sucrose (cell-impermeant) used instead of urea to establish a 250-mM osmotic gradient. As a positive control, HgCl2 (0.3 mM) was added to the RBC suspension prior to stopped-flow measurements. Osmotic water permeability coefficients (Pf) were computed from light scattering data as described (van Hoek et al., J Biol Chem. 267:18267-69 (1992)).
This example describes chemical knock-out of UT-B by UT-B inhibitors in RBCs and the effect on UT-B-facilitated Water transport. […] Osmotic water permeability was measured by stopped-flow light scattering in RBCs from wild-type and AQP1-null mice as shown in FIG. 8A. […] AQP1-null RBCs had greater than 5-fold reduced Pf compared to wild-type RBCs.

Assay [4] deals with UT. The note with it: non-specific membrane intercalating agent; cited from earlier work.
The mark [5] stands for this setting: lysis assay, FIG. 5B, read-out: apparent EC50.
[6] abbreviates: Table 2, read-out: EC50 (μM), UT-B inhibitory potency.

SMILES strings stand for the structures. Read-outs that look alike come from different tables or passages of the source. Bounds are passed on as bounds.

The term EC50 denotes the concentration needed to bring the measured effect to its halfway point. As for `COc1cc(OC)cc(S(=O)(=O)Nc2cc(OC)ccc2OC)c1` [ureainh-201, N-(2,5-dimethoxyphenyl)-3,5-dimethoxybenzene sulfonamide], the EC50 in assay [1] (setting [5]) turned out to be 0.3 µM. In assay [2], the “inhibition of rat UT-A1” value was “Neither ureainh-201 at 25 μM nor ureainh-404 at 25 μM significantly inhibited”.

`NC(=O)c1ccc(S(=O)(=O)Nc2ccc3c(c2)OCCO3)cc1` [ureainh-207, 4-(N-(2,3-dihydrobenzo [b][1,4]dioxin-6-yl)sulfamoyl)benzamide]: the EC50 in assay [1] (setting [6]) was found to be 2 µM.

For `Cc1ccc(S(=O)(=O)Nc2ccc3c(c2)OCCO3)cc1C` [ureainh-212, N-(2,3-dihydrobenzo[b][1,4]dioxin-6-yl)-3,4-dimethylbenzenesulfonamide], the EC50 in assay [1] (setting [6]) is 10 µM.

`CC(=O)c1cccc(S(=O)(=O)Nc2ccc3c(c2)OCCO3)c1` [ureainh-210, 3-acetyl-N-(2,3-dihydrobenzo [b][1,4]dioxin-6-yl) Benzenesulfonamide]: the EC50 in assay [1] (setting [6]) came out at 6 µM.

`O=S(=O)(Nc1ccc2c(c1)OCCO2)c1cccc(Br)c1` [ureainh-211, 3-bromo-N-(2,3-dihydrobenzo[b][1,4]dioxin-6-y])benzenesulfonamide]: in assay [1] (setting [6]), the EC50 turned out to be 8 µM.

`O=C(CCc1ccc(O)cc1)c1c(O)cc(O)cc1O` [phloretin, reference compound]: the UT-A1-facilitated urea transport entry in assay [2] (phloretin 0.7 mM, forskolin-stimulated) is recorded as “inhibited”. In addition, in assay [3] (0.7 mM), the “reduction in Pf” value is on record as “small but significant reduction”. Moreover, the “effect on water transport” value in assay [3] (inhibitors 25 μM, phloretin 0.7 mM, 10° C.) was “little effect on water transport”. The concentration exhibiting activity in assay [4] is given as over 0.5 mM.

Turning to `COc1ccc(OC)c(NS(=O)(=O)c2cccc(Br)c2)c1` [ureainh-203, 3-bromo-N-(2,5-dimethoxyphenyl) benzenesulfonamide], the EC50 in assay [1] (setting [6]) turned out to be 0.7 µM.

For `O=S(=O)(Nc1ccc2c(c1)OCCO2)c1ccc2ccccc2c1` [ureainh-213, N-(2,3-dihydrobenzo[b][1,4]dioxin-6-yl)naphthalene-2-sulfonamide], the EC50 in assay [1] (setting [6]) was 10 µM.

On to `COc1cccc(S(=O)(=O)Nc2ccc3c(c2)OCCO3)c1` [ureainh-209, N-(2,3-dihydrobenzo [b][1,4]dioxin-6-yl)-3-Methoxybenzenesulfonamide], for which the EC50 in assay [1] (setting [6]) was determined as 6 µM.

In the case of `Cn1c(=O)oc2cc(NS(=O)(=O)c3cccc(C(F)(F)F)c3)ccc21` [ureainh-217, N-(3-methyl-2-oxo-2,3-dihydrobenzo[d]oxazol-6-yl)-3-(trifluoromethyl) Benzenesulfonamide], the EC50 in assay [1] (setting [6]) amounted to 4 µM.

As for `COc1ccc(OC)c(NS(=O)(=O)c2ccc(Br)cc2)c1` [ureainh-202, 4-bromo-N-(2,5-dimethoxyphenyl) benzenesulfonamide], in assay [1] (setting [6]), the EC50 came to 0.4 µM.

As to `CCn1c(NCc2cc(Br)ccc2O)nc2ccccc21` [ureainh-404], the EC50 in assay [1] (setting [5]) stood at 0.4 µM. In addition, the “inhibition of rat UT-A1” value in assay [2] was “Neither ureainh-201 at 25 μM nor ureainh-404 at 25 μM significantly inhibited”.

Regarding `Cc1cc(C)cc(S(=O)(=O)Nc2ccc3c(c2)OCCO3)c1` [ureainh-208, N-(2,3-dihydrobenzo [b][1,4]dioxin-6-yl)-3,5-dimethylbenzenesulfonamide], the EC50 in assay [1] (setting [6]) came out at 4 µM.

(Values after US20110053995A1, “BENZENESULFONANILIDE COMPOUND INHIBITORS OF UREA TRANSPORTERS” (THE REGENTS OF THE UNIVERSITY OF CALIFORNIA, priority 2006, published 2011).)
